In US5624923A, “Tricyclic diazepine vasopressin antagonists and oxytocin antagonists” (priority 1995, dated 1997):

How the values were obtained:
oxytocin receptors = biological target: T1, oxytocin receptors (Rattus norvegicus, UniProt P70536); experiment: Oxytocin Receptor Binding; details: for IC50: 1.0 nM [3H]oxytocin
T1 construct: The uteri are dissected out, cleaned of fat and connective tissues; from tissue; host or cells: uterus of DES-treated female Sprague-Dawley rats
T1 sequence (P70536 1-388): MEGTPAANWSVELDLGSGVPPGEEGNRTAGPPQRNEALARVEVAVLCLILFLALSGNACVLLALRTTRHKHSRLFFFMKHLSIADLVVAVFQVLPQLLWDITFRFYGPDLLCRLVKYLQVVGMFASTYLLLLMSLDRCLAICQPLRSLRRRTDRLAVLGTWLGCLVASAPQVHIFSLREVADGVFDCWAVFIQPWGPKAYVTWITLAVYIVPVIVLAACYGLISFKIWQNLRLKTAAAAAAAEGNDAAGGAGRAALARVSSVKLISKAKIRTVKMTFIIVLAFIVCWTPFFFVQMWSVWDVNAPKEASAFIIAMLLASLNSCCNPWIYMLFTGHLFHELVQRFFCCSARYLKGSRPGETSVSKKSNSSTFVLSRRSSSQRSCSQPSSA
Method in brief: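 IC50 is the concentration displacing 50% of 1.0 nM [3H]OT, incubated 60 min at 22 °C in pH 7.4 Tris/MgCl2 buffer plus protease inhibitors, then filtered. Receptor source: uterine membranes from rats given 0.3 mg/kg DES i.m. 18 h earlier. 1.0 uM cold OT defined non-specific binding.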

Rat Hepatic V1 Receptors = biological target: T2, Rat Hepatic V1 Receptors (Rattus norvegicus, UniProt P30560); experiment: Binding Assay to Rat Hepatic V1 Receptors; details: for IC50: rat liver membranes, read-out: V1 IC50; for inhibition at 10 µM: 2 h, rat
T2 construct: Rat liver plasma membranes expressing the vasopressin V1 receptor subtypes; from tissue; host or cells: rat liver plasma membranes
T2 sequence (P30560 whole entry): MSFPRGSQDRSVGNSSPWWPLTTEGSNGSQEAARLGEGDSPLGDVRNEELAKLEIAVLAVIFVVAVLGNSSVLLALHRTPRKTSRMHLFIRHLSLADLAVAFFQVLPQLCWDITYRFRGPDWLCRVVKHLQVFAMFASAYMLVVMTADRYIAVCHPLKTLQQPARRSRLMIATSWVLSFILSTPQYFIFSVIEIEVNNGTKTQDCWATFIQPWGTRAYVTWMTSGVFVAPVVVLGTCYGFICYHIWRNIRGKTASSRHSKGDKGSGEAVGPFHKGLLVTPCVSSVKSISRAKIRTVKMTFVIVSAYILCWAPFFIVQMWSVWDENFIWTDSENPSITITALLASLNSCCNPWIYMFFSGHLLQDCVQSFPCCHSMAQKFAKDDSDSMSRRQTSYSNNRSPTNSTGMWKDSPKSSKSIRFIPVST

## O=C(Nc1ccc(C(=O)N2Cc3cccn3-c3ccccc32)cc1)c1ccc(Cl)cc1Cl [Example 17, N-[4-(pyrrolo(1,2-a]quinoxalin-5(4H)-ylcarbonyl)phenyl]-2,4-dichloro-benzamide]
Oxytocin receptors; [3H]oxytocin
  inhibition at 10 µM: 31%
Rat Hepatic V1 Receptors
  IC50: 1200 nM

## CN(C)CN(C(=O)c1ccc(Cl)cc1Cl)c1ccc(C(=O)N2Cc3cccn3Cc3ccccc32)cc1 [Example 490, N-[(Dimethylamino)methyl]-N-[4-(5H-pyrrolo[2,1-c][1,4]benzodiazepin-10(11H)-ylcarbonyl)phenyl]-2,4-dichlorobenzamide]
Oxytocin receptors
  IC50: 300 nM
Oxytocin receptors; [3H]oxytocin
  inhibition at 10 µM: 99%
Rat Hepatic V1 Receptors
  IC50: 14 nM

## COC(=O)c1ccc2n1Cc1ccccc1N(C(=O)c1ccc(NC(=O)c3ccc(Cl)cc3Cl)cc1)C2 [Example 593]
Oxytocin receptors
  IC50: 1100 nM
Oxytocin receptors; [3H]oxytocin
  inhibition at 10 µM: 82%
Rat Hepatic V1 Receptors
  IC50: 210 nM

## Cc1ccccc1C(=O)Nc1c(C)cc(C(=O)N2Cc3cccn3Cc3ccccc32)cc1C [Example 472]
Oxytocin receptors; [3H]oxytocin
  inhibition at 10 µM: 0%
Rat Hepatic V1 Receptors
  IC50: 890 nM

## Cc1ccccc1CC(=O)Nc1ccc(C(=O)N2Cc3cccn3Cc3ccccc32)cc1 [Example 93, N-[4(5H-Pyrrolo[2,1-c][1,4]benzodiazepin-10(11H)-ylcarbonyl)phenyl]-2-methylbenzeneacetamide]
Oxytocin receptors
  IC50: 60 nM
Oxytocin receptors; [3H]oxytocin
  inhibition at 10 µM: 87%
Rat Hepatic V1 Receptors
  IC50: 0.9 nM

## Cc1c(F)cccc1C(=O)Nc1ccc(C(=O)N2Cc3cccn3Cc3ccccc32)c(Cl)c1 [Example 481, N-[4-(5H-pyrrolo[2,1-c][1,4]benzodiazepin-10(11H)-ylcarbonyl)-3-chlorophenyl]-3-fluoro-2-methylbenzamide]
Oxytocin receptors
  IC50: 240 nM
Oxytocin receptors; [3H]oxytocin
  inhibition at 10 µM: 88%
Rat Hepatic V1 Receptors
  IC50: 1000 nM

## NC(=O)CNC(C(=O)Nc1ccc(C(=O)N2Cc3cccn3Cc3ccccc32)cc1)c1ccccc1 (centres unmarked) [Example 585]
Oxytocin receptors
  IC50: 4700 nM
Oxytocin receptors; [3H]oxytocin
  inhibition at 10 µM: 70%
Rat Hepatic V1 Receptors
  IC50: 280 nM

## Cc1ccc(F)cc1C(=O)Nc1ccc(C(=O)N2Cc3cccn3Cc3ccccc32)c(Cl)c1 [Example 482, N-[4-(5H-pyrrolo[2,1-c][1,4]benzodiazepin-10(11H)-ylcarbony)-3-chlorophenyl]-5-fluoro-2-methylbenzamide]
Oxytocin receptors
  IC50: 126 nM
Oxytocin receptors; [3H]oxytocin
  inhibition at 10 µM: 97%
Rat Hepatic V1 Receptors
  IC50: 410 nM

## O=C(Nc1ccc(C(=O)N2Cc3cccn3Cc3ccccc32)cc1)C(O)c1ccccc1 (racemic) [Example 588, (±) α-Hydroxy-N-[4-(5H-pyrrolo[2,1c][1,4]benzodiazepin-10(11H)-ylcarbonyl)phenyl]benzeneacetamide]
Oxytocin receptors
  IC50: 2000 nM
Oxytocin receptors; [3H]oxytocin
  inhibition at 10 µM: 90%
Rat Hepatic V1 Receptors
  IC50: 40 nM

## Cc1c(F)cccc1C(=O)Nc1ccc(C(=O)N2Cc3ccnn3Cc3ccccc32)cc1 [Example 517, N-[4-(4H-Pyrazolo[5,1-c][1,4]benzodiazepin-5(10H)-ylcarbonyl)phenyl]-3-fluoro-2-methylbenzamide]
Oxytocin receptors
  IC50: 320 nM
Oxytocin receptors; [3H]oxytocin
  inhibition at 10 µM: 91%
Rat Hepatic V1 Receptors
  IC50: 210 nM

## O=C(Nc1ccc(C(=O)N2Cc3cccn3Cc3ccccc32)cc1)c1cccc(C(F)(F)F)c1 [Example 474, N-[4-(5H-pyrrolo[2,1-c][1,4]benzodiazepin-10(11H)-ylcarbonyl)phenyl]-3-(trifluoromethyl)benzamide]
Oxytocin receptors; [3H]oxytocin
  inhibition at 10 µM: 18%
Rat Hepatic V1 Receptors
  IC50: 87 nM

## CSc1ccccc1C(=O)Nc1ccc(C(=O)N2Cc3cccn3Cc3ccccc32)cc1 [Example 85, N-[4-(5H-Pyrrolo[2,1-c][1,4]benzodiazepin-10(11H)-ylcarbonyl)phenyl]-2-(methylthio)benzamide]
Oxytocin receptors
  IC50: 460 nM
Oxytocin receptors; [3H]oxytocin
  inhibition at 10 µM: 98%
Rat Hepatic V1 Receptors
  IC50: 9 nM

## O=C(Nc1ccc(C(=O)N2Cc3ccc(C(=O)C(F)(F)F)n3Cc3ccccc32)cc1)c1ccccc1C(F)(F)F [Example 594]
Oxytocin receptors; [3H]oxytocin
  inhibition at 10 µM: 19%
Rat Hepatic V1 Receptors
  inhibition at 10 µM: 78%

## O=C(Nc1ccc(C(=O)N2Cc3cccn3Cc3ccccc32)cc1)c1cc(Cl)ccc1Cl [Example 4, N-[4-(5H-pyrrolo[2,1-c][1,4]benzodiazepin-10(11H)-ylcarbonyl)phenyl]-2,5-dichlorobenzamide]
Oxytocin receptors
  IC50: 660 nM
Oxytocin receptors; [3H]oxytocin
  inhibition at 10 µM: 98%
Rat Hepatic V1 Receptors
  IC50: 120 nM

## O=C(Nc1ccc(C(=O)N2Cc3cccn3Cc3ccccc32)cc1)c1c(Cl)cccc1Cl [Example 469, N-[4-(5H-pyrrolo[2,1-c][1,4]benzodiazepin-10(11H)-ylcarbonyl)phenyl]-2,6-dichlorobenzamide]
Oxytocin receptors
  IC50: 265 nM
Oxytocin receptors; [3H]oxytocin
  inhibition at 10 µM: 96%
Rat Hepatic V1 Receptors
  IC50: 94 nM

## O=C(Nc1ccc(C(=O)N2Cc3ccc(CO)n3Cc3ccccc32)cc1)c1ccc(Cl)cc1Cl [Example 581, 2,4-Dichloro-N-[4-[[3-(hydroxymethyl)-5H-pyrrolo[2,1-c][1,4]benzodiazepin-10(11H)-yl]carbonyl]phenyl]benzamide]
Oxytocin receptors
  IC50: 200 nM
Oxytocin receptors; [3H]oxytocin
  inhibition at 10 µM: 99%
Rat Hepatic V1 Receptors
  IC50: 21 nM

## O=C(Nc1ccc(C(=O)N2Cc3cccn3Cc3ccccc32)cc1)c1ccccc1Cl [Example 7]
Oxytocin receptors
  IC50: 130 nM
Oxytocin receptors; [3H]oxytocin
  inhibition at 10 µM: 97%
Rat Hepatic V1 Receptors
  IC50: 10 nM

## O=C(Nc1ccc(C(=O)N2Cc3cccn3Cc3ccccc32)cc1)c1cc(Cl)cc(Cl)c1Cl [Example 599, N-[4-(5H-Pyrrolo[2,1-c][1,4]benzodiazepin-10(11H)-ylcarbonyl)phenyl]-2,3,5-trichlorobenzamide]
Oxytocin receptors
  IC50: 350 nM
Oxytocin receptors; [3H]oxytocin
  inhibition at 10 µM: 92%
Rat Hepatic V1 Receptors
  IC50: 46 nM

## Cc1cccc(NC(=O)c2ccc(C(=O)N3Cc4cccn4Cc4ccccc43)cc2)c1C [Example 485, N-(2,3-Dimethylphenyl)-4-(5H-pyrrolo[2,1-c][1,4]benzodiazepin-10(11H)-ylcarbonyl)benzamide]
Oxytocin receptors
  IC50: 2200 nM
Oxytocin receptors; [3H]oxytocin
  inhibition at 10 µM: 86%
Rat Hepatic V1 Receptors
  IC50: 240 nM

## O=C(Nc1ccc(C(=O)N2Cc3cccn3Cc3ccccc32)cc1)c1ccc(Cl)cc1Cl [Example 6, N-[4-(5H-pyrrolo[2,1-c][1,4]benzodiazepin-10(11H)-ylcarbonyl)phenyl]-2,4-dichlorobenzamide]
Oxytocin receptors
  IC50: 350 nM
Oxytocin receptors; [3H]oxytocin
  inhibition at 10 µM: 92%
Rat Hepatic V1 Receptors
  IC50: 23 nM

## Cc1ccccc1C(=O)Nc1ccc(C(=O)N2Cc3ccnn3Cc3ccccc32)cc1 [Example 210, N-[4-(4H-Pyrazolo[5,1-c][1,4]benzodiazepin-5(10H)-ylcarbonyl)phenyl]-2-methylbenzamide]
Oxytocin receptors
  IC50: 4000 nM
Oxytocin receptors; [3H]oxytocin
  inhibition at 10 µM: 64%
Rat Hepatic V1 Receptors
  IC50: 58 nM

## O=C(Nc1ccc(C(=O)N2Cc3ccc(Cn4ccnc4)n3Cc3ccccc32)cc1)c1ccc(Cl)cc1Cl [Example 582, 2,4-Dichloro-N-[4-[[3-(1H-imidazol-1-ylmethyl)-5H-pyrrolo[2,1-c][1,4]benzodiazepin-10(11H)-yl]carbonyl]phenyl]benzamide]
Oxytocin receptors
  IC50: 675 nM
Oxytocin receptors; [3H]oxytocin
  inhibition at 10 µM: 96%
Rat Hepatic V1 Receptors
  IC50: 130 nM

## O=C(Nc1ccc(C(=O)N2Cc3cccn3Cc3ccccc32)c(Cl)c1)c1ccc(Cl)cc1Cl [Example 471]
Oxytocin receptors
  IC50: 350 nM
Oxytocin receptors; [3H]oxytocin
  inhibition at 10 µM: 99%
Rat Hepatic V1 Receptors
  IC50: 45 nM

## COC(=O)c1ccc(C(=O)Nc2ccc(C(=O)N3Cc4cccn4Cc4ccccc43)cc2)cc1 [Example 489]
Oxytocin receptors; [3H]oxytocin
  inhibition at 10 µM: 44%
Rat Hepatic V1 Receptors
  inhibition at 10 µM: 61%

## Cc1ccccc1C(=O)Nc1ccc(C(=O)N2Cc3cccn3Cc3ccccc32)cc1 [Example 3, 2-Methyl-N-[4-(5H-pyrrolo[2,1-c][1,4]-benzodiazepin-10(11H)-ylcarbonyl)phenyl]benzamide]
Oxytocin receptors
  IC50: 360 nM
Oxytocin receptors; [3H]oxytocin
  inhibition at 10 µM: 90%
Rat Hepatic V1 Receptors
  IC50: 38 nM

## O=C(CN1CCOCC1)Nc1ccc(C(=O)N2Cc3cccn3Cc3ccccc32)cc1 [Example 590, N-[4-(5H-pyrrolo[2,1-c][1,4]benzodiazepin-10(11H)-ylcarbonyl)phenyl]-4-morpholineacetamide]
Oxytocin receptors; [3H]oxytocin
  inhibition at 10 µM: 12%
Rat Hepatic V1 Receptors
  inhibition at 10 µM: 89%

## CC(=O)OC(C(=O)Nc1ccc(C(=O)N2Cc3cccn3Cc3ccccc32)cc1)c1ccccc1 (stereo not drawn) [Example 587, α-(Acetyloxy)-N-[4-(5H-pyrrolo[2,1-c][1,4]benzodiazepin-10(11H)-ylcarbonyl)phenyl]benzeneacetamide]
Oxytocin receptors
  IC50: 8000 nM
Oxytocin receptors; [3H]oxytocin
  inhibition at 10 µM: 56%
Rat Hepatic V1 Receptors
  IC50: 67 nM

## Cc1ccccc1C(=O)Nc1ccc(C(=O)N2Cc3cccn3Cc3ccccc32)c(Cl)c1 [Example 470]
Oxytocin receptors
  IC50: 220 nM
Oxytocin receptors; dose 2.5 μM, [3H]oxytocin
  inhibition at 2.5 µM: 92%
Rat Hepatic V1 Receptors
  IC50: 54 nM

## Cc1ccccc1C(=O)Nc1ccc(C(=O)N2Cc3ccc(C(=O)C(F)(F)F)n3Cc3ccccc32)c(Cl)c1 [Example 595, N-[4-[[3-(Trifluoroacetyl)-5H-pyrrolo[2,1-c][1,4]benzodiazepin-10(11H)-yl]carbonyl]-3-chlorophenyl]-2-methylbenzamide]
Oxytocin receptors; [3H]oxytocin
  inhibition at 10 µM: 49%
Rat Hepatic V1 Receptors
  inhibition at 10 µM: 57%

## O=C(Nc1ccc(C(=O)N2Cc3cccn3Cc3ccccc32)cc1)c1sccc1Cl [Example 476, N-[4-(5H-pyrrolo[2,1-c][1,4]benzodiazepin-10(11H)-ylcarbonyl)phenyl]-3-chlorothiophene-2-carboxamide]
Oxytocin receptors
  IC50: 820 nM
Oxytocin receptors; [3H]oxytocin
  inhibition at 10 µM: 94%
Rat Hepatic V1 Receptors
  IC50: 84 nM
